Drawing on US9206184B2, “Disubstituted benzothienyl-pyrrolotriazines and uses thereof” (BAYER INTELLECTUAL PROPERTY GmbH, priority 2011, dated 2015), this text covers IC50 for 21 compounds.

One assay addresses human FGFR-3 (Homo sapiens (Human), UniProt P22607). Description: FGFR-3 kinase assay (TR-FRET). The following applies: 10 μM ATP; 15 min pre-incubation with enzyme; compounds of the invention. The assay is classed as biochemical.
A further assay has as its target human FGFR-1 (Homo sapiens, UniProt P11362). The assay is described as follows: FGFR-1 high ATP kinase assay (TR-FRET). It counts as biochemical. To be noted: 2 mM ATP; 15 min pre-incubation with enzyme; compounds of the invention.

As a reminder, the IC50 is the midpoint of a concentration-inhibition curve. A lower IC50 goes with greater potency.

Sequence of human FGFR-1 (P11362 22-822 limits assumed): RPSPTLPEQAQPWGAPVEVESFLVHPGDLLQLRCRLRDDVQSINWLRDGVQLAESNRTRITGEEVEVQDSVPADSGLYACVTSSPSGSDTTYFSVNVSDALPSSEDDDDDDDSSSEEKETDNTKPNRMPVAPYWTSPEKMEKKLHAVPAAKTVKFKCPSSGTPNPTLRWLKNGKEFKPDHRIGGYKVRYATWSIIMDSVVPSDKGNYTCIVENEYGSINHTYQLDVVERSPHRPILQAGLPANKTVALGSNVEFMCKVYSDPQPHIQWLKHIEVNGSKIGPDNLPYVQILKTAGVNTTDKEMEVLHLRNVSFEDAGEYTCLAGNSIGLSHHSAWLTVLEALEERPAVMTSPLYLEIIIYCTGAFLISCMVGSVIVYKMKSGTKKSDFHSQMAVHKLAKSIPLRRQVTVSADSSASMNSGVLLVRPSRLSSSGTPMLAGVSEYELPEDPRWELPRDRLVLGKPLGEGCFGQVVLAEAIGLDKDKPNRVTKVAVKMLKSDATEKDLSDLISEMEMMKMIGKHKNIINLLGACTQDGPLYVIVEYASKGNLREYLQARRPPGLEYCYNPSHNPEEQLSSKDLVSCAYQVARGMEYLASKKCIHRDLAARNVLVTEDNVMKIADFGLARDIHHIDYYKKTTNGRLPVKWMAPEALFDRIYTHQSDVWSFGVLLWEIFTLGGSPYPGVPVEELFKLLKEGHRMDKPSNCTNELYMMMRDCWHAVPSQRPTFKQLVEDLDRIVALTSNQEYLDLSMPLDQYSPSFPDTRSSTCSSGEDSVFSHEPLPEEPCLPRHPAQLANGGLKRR
Sequence of human FGFR-3 (P22607 397-806): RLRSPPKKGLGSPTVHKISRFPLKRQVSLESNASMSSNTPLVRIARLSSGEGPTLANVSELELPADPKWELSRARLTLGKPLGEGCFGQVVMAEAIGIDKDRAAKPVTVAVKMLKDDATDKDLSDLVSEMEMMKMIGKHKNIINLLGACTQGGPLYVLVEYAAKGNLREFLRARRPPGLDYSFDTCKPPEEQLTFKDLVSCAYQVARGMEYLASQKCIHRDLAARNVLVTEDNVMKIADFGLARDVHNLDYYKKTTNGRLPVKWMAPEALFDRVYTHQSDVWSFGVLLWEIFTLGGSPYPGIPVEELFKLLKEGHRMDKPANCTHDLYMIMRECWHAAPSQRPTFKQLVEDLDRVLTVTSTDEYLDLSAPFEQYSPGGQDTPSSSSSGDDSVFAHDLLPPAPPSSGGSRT

Turning to `COc1cc(C)cc2cc(-c3c(COCC(N)=O)c(CN4CCNCC4)n4ncnc(N)c34)sc12` [Example 33, 2-{[4-Amino-5-(7-methoxy-5-methyl-1-benzothiophen-2-yl)-7-(piperazin-1-ylmethyl)pyrrolo-[2,1-f][1,2,4]triazin-6-yl]methoxy}acetamide], the values for the half-maximal inhibitory concentration (IC50) against human FGFR-3 and against human FGFR-1 were 7.2 nM and 1 nM, respectively.

As for `COc1cc(C)cc2cc(-c3c(CNCC(C)(C)O)c(Cl)n4ncnc(N)c34)sc12` [Example 81, 1-({[4-Amino-7-chloro-5-(7-methoxy-5-methyl-1-benzothiophen-2-yl)pyrrolo[2,1-f][1,2,4]triazin-6-yl]methyl}amino)-2-methylpropan-2-ol formiate], the half-inhibitory concentration (IC50) came to 0.5 nM against human FGFR-3 and 1.9 nM against human FGFR-1.

With `COc1cc(C)cc2cc(-c3c(CN4CCNC(=O)C4)c(C(C)(C)O)n4ncnc(N)c34)sc12` [Example 74, 4-{[4-Amino-7-(2-hydroxypropan-2-yl)-5-(7-methoxy-5-methyl-1-benzothiophen-2-yl)pyrrolo-[2,1-f][1,2,4]triazin-6-yl]methyl}piperazin-2-one], the IC50 at human FGFR-3 was found to be 1.4 nM; on human FGFR-1, 4 nM.

`CCOCc1c(-c2cc3cc(C)cc(OC)c3s2)c2c(N)ncnn2c1C(O)C1CC1` (stereo not drawn) [Example 91, [4-Amino-6-(ethoxymethyl)-5-(7-methoxy-5-methyl-1-benzothiophen-2-yl)pyrrolo[2,1-f][1,2,4]-triazin-7-yl](cyclopropyl)methanol]: the IC50 against human FGFR-3 was 31.1 nM; at human FGFR-1, 52.9 nM.

With `CCOCc1c(-c2cc3cc(C)cc(OC)c3s2)c2c(N)ncnn2c1C(=O)N(C)C` [Example 114], the IC50 against human FGFR-3 came out at 9.6 nM; against human FGFR-1, 11.2 nM.

On to `COc1cc(C)cc2cc(-c3c(COCCO)c(CN4CCNC(=O)C4)n4ncnc(N)c34)sc12` [Example 21, 4-({4-Amino-6-[(2-hydroxyethoxy)methyl]-5-(7-methoxy-5-methyl-1-benzothiophen-2-yl)pyrrolo-[2,1-f][1,2,4]triazin-7-yl}methyl)piperazin-2-one formiate], for which the IC50 was 13 nM against human FGFR-3 and 4.2 nM on human FGFR-1.

On to `CCOCc1c(-c2cc3cc(C)cc(OC)c3s2)c2c(N)ncnn2c1C(=O)N[C@@H]1CCNC1=O` [Example 106, 4-Amino-6-(ethoxymethyl)-5-(7-methoxy-5-methyl-1-benzothiophen-2-yl)-N-[(3R)-2-oxopyrrolidin-3-yl]pyrrolo[2,1-f][1,2,4]triazine-7-carboxamide], for which the figures for the IC50 against human FGFR-3 and at human FGFR-1 were 7.1 nM and 6.4 nM, respectively.

In the case of `COc1cc(C)cc2cc(-c3c(COCC(F)(F)F)c(CN4CCNCC4)n4ncnc(N)c34)sc12` [Example 29, 5-(7-Methoxy-5-methyl-1-benzothiophen-2-yl)-7-(piperazin-1-ylmethyl)-6-[(2,2,2-trifluoroethoxy)methyl]pyrrolo[2,1-f][1,2,4]triazin-4-amine formiate], the IC50 at human FGFR-3 worked out at 2.5 nM; against human FGFR-1, 1.6 nM.

Regarding `CCOCc1c(-c2cc3cc(C)cc(OC)c3s2)c2c(N)ncnn2c1CN1CCS(=O)(=O)CC1` [Example 99], the IC50 was found to be 36.9 nM against human FGFR-3 and 24.8 nM against human FGFR-1.

As for `COc1cc(C)cc2cc(-c3c(CNCC(C)(C)O)c(C)n4ncnc(N)c34)sc12` [Example 78, 1-({[4-Amino-5-(7-methoxy-5-methyl-1-benzothiophen-2-yl)-7-methylpyrrolo[2,1-f][1,2,4]triazin-6-yl]methyl}amino)-2-methylpropan-2-ol], the 50% inhibitory concentration (IC50) on human FGFR-3 stood at 2 nM; against human FGFR-1, 1.7 nM.

With `CCOCc1c(-c2cc3cc(C)cc(OC)c3s2)c2c(N)ncnn2c1C(=O)N1CNC(=O)C1` [Example 117], the IC50 on human FGFR-3 was found to be 5.3 nM; at human FGFR-1 it was 8.8 nM.

As to `COc1cc(C)cc2cc(-c3c(C)c(CN4CCNCC4)n4ncnc(N)c34)sc12` [Example 84, 5-(7-Methoxy-5-methyl-1-benzothiophen-2-yl)-6-methyl-7-(piperazin-1-ylmethyl)pyrrolo[2,1-f]-[1,2,4]triazin-4-amine formiate], the results for the IC50 against human FGFR-3 and against human FGFR-1 were 16.5 nM and 3.7 nM, respectively.

As to `CCOCc1c(-c2cc3cc(C)cc(OC)c3s2)c2c(N)ncnn2c1CN1CCNC(=O)C1(C)C` [Example 95], the IC50 against human FGFR-3 is 28.7 nM; on human FGFR-1, 17 nM.

On to `COc1cc(C)cc2cc(-c3c(CNCC(C)(C)O)c(C)n4ncnc(N)c34)sc12` [Example 77, 1-({[4-Amino-5-(7-methoxy-5-methyl-1-benzothiophen-2-yl)-7-methylpyrrolo[2,1-f][1,2,4]triazin-6-yl]methyl}amino)-2-methylpropan-2-ol formiate], for which the IC50 at human FGFR-3 came to 3.8 nM; on human FGFR-1 it was 1.4 nM.

`COc1cc(C)cc2cc(-c3c(CNCC(C)(C)O)c(CN4CCOCC4)n4ncnc(N)c34)sc12` [Example 54, 1-({[4-Amino-5-(7-methoxy-5-methyl-1-benzothiophen-2-yl)-7-(morpholin-4-ylmethyl)pyrrolo-[2,1-f][1,2,4]triazin-6-yl]methyl}amino)-2-methylpropan-2-ol]: the results for the IC50 against human FGFR-3 and on human FGFR-1 were 6.8 nM and 11.2 nM, respectively.

For the compound `CCOCc1c(-c2cc3cc(C)cc(OC)c3s2)c2c(N)ncnn2c1CN1CC(F)(F)C1` [Example 102], the IC50 on human FGFR-3 worked out at 39.8 nM; against human FGFR-1, 39.2 nM.

As for `COc1cc(C)cc2cc(-c3c(CO)c(C(C)(C)O)n4ncnc(N)c34)sc12` [Example 73, 2-[4-Amino-6-(hydroxymethyl)-5-(7-methoxy-5-methyl-1-benzothiophen-2-yl)pyrrolo[2,1-f]-[1,2,4]triazin-7-yl]propan-2-ol], the values for the IC50 on human FGFR-3 and against human FGFR-1 were 12.2 nM and 4.4 nM, respectively.

Consider `CCOCc1c(-c2cc3cc(C)cc(OC)c3s2)c2c(N)ncnn2c1CN1CC[C@](C)(N)C1` [Example 15, 7-{[(3S)-3-Amino-3-methylpyrrolidin-1-yl]methyl}-6-(ethoxymethyl)-5-(7-methoxy-5-methyl-1-benzothiophen-2-yl)pyrrolo[2,1-f][1,2,4]triazin-4-amine], for which the IC50 against human FGFR-3 and on human FGFR-1 was 1 nM each time.

As for `COc1cc(C)cc2cc(-c3c(CNCC(C)(C)O)c(CN4CCN(C(C)=O)CC4)n4ncnc(N)c34)sc12` [Example 57, 1-(4-{[4-Amino-6-{[(2-hydroxy-2-methylpropyl)amino]methyl}-5-(7-methoxy-5-methyl-1-benzothiophen-2-yl)pyrrolo[2,1-f][1,2,4]triazin-7-yl]methyl}piperazin-1-yl)ethanone], the concentration for half-maximal inhibition (IC50) at human FGFR-3 is 1.8 nM; against human FGFR-1, 3.2 nM.

Regarding `CCOCc1c(-c2cc3cc(C)cc(OC)c3s2)c2c(N)ncnn2c1CN1CCN(C(C)=O)CC1` [Example 20, 1-(4-{[4-Amino-6-(ethoxymethyl)-5-(7-methoxy-5-methyl-1-benzothiophen-2-yl)pyrrolo[2,1-f]-[1,2,4]triazin-7-yl]methyl}piperazin-1-yl)ethanone], the IC50 against human FGFR-3 stood at 26.1 nM; on human FGFR-1, 25 nM.

Regarding `CCOCc1c(-c2cc3cc(C)cc(OC)c3s2)c2c(N)ncnn2c1C(C)O` (stereo not drawn) [Example 90, 1-[4-Amino-6-(ethoxymethyl)-5-(7-methoxy-5-methyl-1-benzothiophen-2-yl)pyrrolo[2,1-f][1,2,4]-triazin-7-yl]ethanol], the IC50 against human FGFR-3 is 11 nM; on human FGFR-1, 9.9 nM.
